We go through 45 compounds from patent EP2140864A2 (H. Lundbeck A/S, priority 2001, dated 2002).

pKi: −log10 of the molar value.

One experiment addresses T1, human GAL3 receptor (Homo sapiens, UniProt O60755).
T1 construct: expressed in transfected cells
T1 sequence (O60755 1-368): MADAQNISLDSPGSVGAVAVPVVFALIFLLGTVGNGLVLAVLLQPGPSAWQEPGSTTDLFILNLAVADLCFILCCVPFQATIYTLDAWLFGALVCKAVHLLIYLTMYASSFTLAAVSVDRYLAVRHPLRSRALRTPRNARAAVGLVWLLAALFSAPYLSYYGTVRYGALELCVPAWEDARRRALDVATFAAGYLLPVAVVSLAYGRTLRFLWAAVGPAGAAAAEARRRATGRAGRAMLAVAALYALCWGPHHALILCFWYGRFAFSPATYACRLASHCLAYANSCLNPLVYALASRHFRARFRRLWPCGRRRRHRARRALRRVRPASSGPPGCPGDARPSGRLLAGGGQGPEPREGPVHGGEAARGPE
In words: Radioligand binding at cloned human GAL3 receptor. Conditions: indolones, cloned human receptor; read-out: Ki GalR3. The method, then:
The present invention provides for a method of determining the binding affinity of a GAL3 antagonist, wherein the GAL3 antagonist is dissolved in a "suitable solvent". A "suitable solvent" means one which permits the measurement of binding affinity of the GAL3 antagonist to the human GAL3 receptor at concentrations less than 1 µM, preferably less than 100 nM. Examples of solvents include, but are not limited to, DMSO, ethanol, N,N-dimethylacetamide, or water. For indolones, the preferred solvent is 3% DMSO (final concentration in the assay). For pyrimidines, the preferred solvent is 1% ethanol/0.09% polypuronic acid F-127 (final concentration in the assay). For any other type of compounds, the preferred solvent is the solvent which permits the measurement of binding affinity of a GAL3 antagonist at the lowest concentration. Once a suitable solvent is ascertained for the binding assay of the human GAL3 receptor, the same solvent is used in assays to determine the binding affinity at the GAL1 receptor, the serotonin transporter, the norepinephrine transporter, and the dopamine transporter. A solvent of 0.4% DMSO is used in the central monoamine oxidase enzyme assay.
The binding properties of the pyrimidines of the present invention were evaluated at the cloned human galanin receptors, GAL1, GAL2, and GAL3, using protocols described herein.
The binding properties of the indolones of the present invention were evaluated at the cloned human galanin receptors, GAL1, GAL2, and GAL3, using protocols described herein.
LM(tk-) cells were stably transfected with the human GAL1 or GAL3 receptor. CHO cells were stably transfected with the human GAL2 receptor.
cDNAs for the human and rat GAL1, and human and rat GAL3 receptors were transfected with a G-418 resistant gene into the mouse fibroblast LM(tk-) cell line by a calcium phosphate transfection method (Cullen, 1987). Stably transfected cells were selected with G-418. Human and rat GAL2 receptors were similarly transfected into CHO cells.
Membranes were harvested from stably transfected LM(tk-) cells. Adherent cells were washed twice in ice-cold phosphate buffered saline (138 mM NaCl, 8.1 mM Na2HPO4, 2.5 mM KCl, 1.2 mM KH2PO4, 0.9 mM CaCl2, 0.5 mM MgCl2, pH 7.4) and lysed by sonication in ice-cold sonication buffer (20 mM Tris-HCl, 5 mM EDTA, pH 7.7). Large particles and debris were cleared by low speed centrifugation (200 x g, 5 min, 4°C). Membranes were collected from the supernatant fraction by centrifugation (32,000 x g, 18 min, 4°C), washed with ice-cold hypotonic buffer, and collected again by centrifugation (32,000 x g, 18 min, 4°C). The final membrane pellet was resuspended by sonication into a small volume of ice-cold binding buffer (-1 ml for every 5 plates: 10 mM NaCl, 20 mM HEPES, 0.22 mM KH2PO4, 1.26 mM CaCl2, 0.81 mM MgSO4, pH 7.4). Protein concentration was measured by the Bradford method (Bradford, 1976) using Bio-Rad Reagent, with bovine serum albumin as a standard. Membranes were held on ice for up to one hour and used fresh, or flash frozen and stored in liquid nitrogen. Membranes were prepared similarly from CHO cells.
Galanin Recentors: Binding assays were performed according to the following published methods: human GAL3 (PCT International Publication No. WO 98/15570), human GAL1 (PCT International Publication No. WO 95/2260), human GAL2 (PCT International Publication No. WO 97/26853).
Binding data were analyzed using nonlinear regression and statistical techniques available in the GraphPAD Prism package (San Diego, CA). Enzymatic assay data were derived from a standard curve of reference compound data.
What is called pKi is the negative decadic logarithm of the Ki, by convention in mol/L. Turning to `CCn1c2ccccc2c2cc(/N=C3\C(=O)N(c4ccccc4)c4ccccc43)ccc21` [Example 281, (3Z)-3-[(9-ETHYL-9H-CARBAZOL-3-YL)IMINO]-1-PHENYL-1,3-DIHYDRO-2H-INDOL-2-ONE], the pKi is 6.82. In the case of `O=C1C(=Nc2cccc(C(F)(F)F)c2)c2ccccc2N1Cc1csc2ccc(Cl)cc12` [Example 111, 1-[(5-CHLORO-1-BENZOTHIEN-3-YL)METHYL]-3-{[3-(TRIFLUOROMETHYL)PHENYL]IMINO}-1,3-DIHYDRO-2H-INDOL-2-ONE], the pKi was 5.93. Same read-out and setting: under `Cc1noc(C)c1CN1C(=O)/C(=N\c2ccc(Cl)c(Cl)c2)c2ccccc21` [Example 255] stands 7.31; under `O=C1C(=Nc2cccc(C(F)(F)F)c2)c2ccccc2N1Cc1ccc(Cl)s1` (mixture of isomers) [Example 108, 1-[(5-CHLORO-2-THIENYL)METHYL]-3-{[3-(TRIFLUOROMETHYL)PHENYL]IMINO}-1,3-DIHYDRO-2H-INDOL-2-ONE], 7.08; under `O=C1/C(=N\c2cccc(Br)c2)c2ccccc2N1c1ccccc1` [Example 307, (3Z)-3-[(3-BROMOPHENYL)IMINO]-1-PHENYL-1,3-DIHYDRO-2H-INDOL-2-ONE], 7.39. Still for that read-out and setting: under `O=C1/C(=N\c2ccc3cn[nH]c3c2)c2ccccc2N1c1ccccc1` [Example 301, (3Z)-3-(1H-INDAZOL-6-YLIMINO)-1-PHENYL-1,3-DIHYDRO-2H-INDOL-2-ONE] stands 6.06; under `O=C1/C(=N\c2cc(F)cc(F)c2)c2ccccc2N1c1ccsc1` [Example 264, (3Z)-3-[(3,5-DIFLUOROPHENYL)IMINO]-1-(3-THIENYL)-1,3-DIHYDRO-2H-INDOL-2-ONE], 7.57. For the compound `O=C1/C(=N\c2cccc(C(F)(F)F)c2)c2ccccc2N1Cc1ccccn1` [Example 273], the pKi is 6.69. The same measure, in the same setting: under `O=C1/C(=N\c2ccc(F)c(F)c2)c2ccccc2N1c1ccccc1` [Example 285, (3Z)-3-[(3,4-DIFLUOROPHENYL)IMINO]-1-PHENYL-1,3-DIHYDRO-2H-INDOL-2-ONE] stands 7.59; under `O=C1/C(=N\c2cccc(Cl)c2)c2ccccc2N1c1ccsc1` [Example 270, (3Z)-3-[(3-CHLOROPHENYL)IMINO]-1-(3-THIENYL)-1,3-DIHYDRO-2H-INDOL-2-ONE], 7.38.

Staying with this experiment, now noted: pyrimidines, cloned human receptor; read-out: Ki GalR3.
In the case of `Cc1ccc(Nc2cc(N(C)C)nc(Nc3ccc(Cl)c(Cl)c3)n2)cc1` [Example 55], the pKi was 7.32. Still for that read-out and setting: under `Cc1ccc(Nc2cc(N(C)C)nc(N3CCN(c4cnccn4)CC3)n2)cc1` [Example 181] stands 6.12. Still for that read-out and setting: then `CN(C)c1cc(Nc2ccc(C#N)c(Cl)c2)nc(N2CCN(Cc3ccccc3)CC2)n1` [Example 129], with 6.39. Same read-out and setting: then `COc1cc(Nc2cc(N(C)C)nc(N3CCN(c4ccccn4)CC3)n2)cc(OC)c1` [Example 202], with 6.13.

With `CCC(C)c1ccc(Nc2cc(N(C)C)nc(N3CCN(c4ccccn4)CC3)n2)cc1` (stereo not drawn) [Example 211], the pKi is 7.24. For the compound `CN(C)c1cc(Nc2cccc(C(F)(F)F)c2)nc(N2CCN(c3ccccn3)CC2)n1` [Example 125], the pKi was 7.12.

Consider `COc1ccc(Cl)cc1Nc1cc(N(C)C)nc(N2CCN(c3ccccn3)CC2)n1` [Example 220], for which the pKi was 6.15. Same read-out and setting: then `Cc1ccc(Nc2cc(N(C)C)nc(N3CCN(c4ccccn4)CC3)n2)cc1Br` [Example 240], with 7.11; and `CN(C)c1cc(NC2CCCCCC2)nc(N2CCN(Cc3ccccc3)CC2)n1` [Example 128], with 6.60.

For the compound `Cc1cc(C)cc(Nc2cc(N(C)C)nc(N3CCN(c4ccccn4)CC3)n2)c1` [Example 214], the pKi was 6.17. On the same count and under the same terms, then `Cc1ccc(Nc2cc(N3CCCCC3)nc(N3CCN(Cc4ccccc4)CC3)n2)cc1` [Example 23], with 7.22; and `CN(C)c1cc(Nc2cc(F)ccc2Cl)nc(N2CCN(c3ccccn3)CC2)n1` [Example 222], with 6.07; and `COc1cccc(CN2CCN(c3nc(Nc4ccc(C)cc4)cc(N(C)C)n3)CC2)c1` [Example 142], with 7.55.

For the compound `COCCN(CCOC)c1nc(Nc2ccc(C)cc2)cc(N2CCCCC2)n1` [Example 45], the pKi was 6.30. The same measure, in the same setting: then `CN(C)c1cc(Nc2ccc(C3CCCCC3)cc2)nc(N2CCN(c3ccccn3)CC2)n1` [Example 121], with 7.68; and `CN(C)c1ccc(Nc2cc(N(C)C)nc(N3CCN(Cc4ccccc4)CC3)n2)cc1` [Example 158], with 6.03. Still for that read-out and setting: then `CN(C)c1cc(Nc2cccc3c2CCCC3)nc(N2CCN(c3ccccn3)CC2)n1` [Example 122], with 7.19; and `Cc1cccc(Nc2cc(N(C)C)nc(N3CCN(c4ccccn4)CC3)n2)c1C` [Example 215], with 6.35; and `COc1cccc(CN2CCN(c3nc(Nc4cccc(OC)c4)cc(N(C)C)n3)CC2)c1` [Example 148], with 6.56.

As to `Cc1ccc(Nc2cc(N3CCCCC3)nc(N3CCN(c4c(C(F)(F)F)ccc[n+]4[O-])CC3)n2)cc1` [Example 249], the pKi is 6.41.

For `Cc1ccc(Nc2cc(N(C)C)nc(N3CCN(c4ccc(C(N)=O)cn4)CC3)n2)cc1` [Example 141, 6-{4-[4-(DIMETHYLAMINO)-6-(4-TOLUDINO)-2-PYRIMIDINYL] -1-PIPERAZINYL}NICOTINAMIDE], the pKi was 6.29. Same read-out and setting: then `COc1cccc(Nc2cc(N(C)C)nc(N3CCN(C4CCCCC4)CC3)n2)c1` [Example 163], with 6.30; and `Cc1ccc(Nc2cc(N(C)C)nc(N3CCN(CC4CCCO4)CC3)n2)cc1` (stereo not drawn) [Example 154], with 6.36. The same measure, in the same setting: under `COc1cccc(Nc2cc(N(C)C)nc(N3CCN(Cc4ccccc4OC)CC3)n2)c1` [Example 166] stands 6.58; under `Cc1ccc(Nc2cc(N3CCC(=O)CC3)nc(N3CCN(Cc4ccccc4)CC3)n2)cc1` [Example 184], 6.79. Still for that read-out and setting: under `CN(C)c1cc(Nc2ccc(OCc3ccccc3)cc2)nc(N2CCN(c3ccccn3)CC2)n1` [Example 117] stands 7.21. As for `CN(C)c1cc(Nc2cccc(Cl)c2)nc(N2CCN(Cc3ccccc3)CC2)n1` [Example 160], the pKi was 7.59. Still for that read-out and setting: then `CN(C)c1cc(Nc2ccc(Cc3ccccc3)cc2)nc(N2CCN(c3ccccn3)CC2)n1` [Example 188], with 7.57; and `CCCCCCCCc1ccc(Nc2cc(N(C)C)nc(N3CCN(c4ccccn4)CC3)n2)cc1` [Example 192], with 7.74; and `CN(C)c1cc(Nc2cnc3ccccc3c2)nc(N2CCN(c3ccccn3)CC2)n1` [Example 132], with 6.21. Take `CN(C)c1cc(NC2C3(C)CCC(C3)C2(C)C)nc(N2CCN(Cc3ccccc3)CC2)n1` (stereo not drawn) [Example 130]: the pKi was 7.00. On the same count and under the same terms, under `CN(C)c1cc(Nc2cc(Cl)ccc2Cl)nc(N2CCN(c3ccccn3)CC2)n1` [Example 208] stands 6.92; under `Cc1ccc(Nc2cc(N(C)C)nc(N3CCN(c4ccccn4)CC3)n2)cc1Nc1ccccn1` [Example 242], 6.78; under `C[C@H]1[C@H](Nc2cc(N(C)C)nc(N3CCN(Cc4ccccc4)CC3)n2)C[C@@H]2C[C@@H]1C2(C)C` [Example 139], 7.33. Still for that read-out and setting: under `Cc1cc(Nc2cc(N(C)C)nc(N3CCN(c4ccccn4)CC3)n2)ccc1F` [Example 200] stands 6.51.
